Reference: ChEMBL document CHEMBL1152817, “Prevention of organ allograft rejection by a specific Janus kinase 3 inhibitor” (Science, 2003)

Key:
[1] = target: Tyrosine-protein kinase JAK2 (Homo sapiens, UniProt O60674)
[2] = target: Tyrosine-protein kinase JAK1 (Homo sapiens, UniProt P23458)
T-cell = experiment: cells; conditions: Homo sapiens
Description: Inhibition of IL2-induced proliferation of human T cells assessed as [3H]thymidine incorporation after 72 hrs by scintillation counting

HFF = experiment: cells; conditions: Homo sapiens
Description: Inhibition of fetal calf serum-induced proliferation of human foreskin fibroblast assessed as [3H]thymidine incorporation after 4 days by scintillation counting

cells = conditions: Homo sapiens, HUO3
Description: Inhibition of human GM-CSF-induced proliferation in human HUO3 cells assessed as [3H]thymidine incorporation after 4 days by scintillation counting

Chain of Tyrosine-protein kinase JAK1 (P23458 whole entry): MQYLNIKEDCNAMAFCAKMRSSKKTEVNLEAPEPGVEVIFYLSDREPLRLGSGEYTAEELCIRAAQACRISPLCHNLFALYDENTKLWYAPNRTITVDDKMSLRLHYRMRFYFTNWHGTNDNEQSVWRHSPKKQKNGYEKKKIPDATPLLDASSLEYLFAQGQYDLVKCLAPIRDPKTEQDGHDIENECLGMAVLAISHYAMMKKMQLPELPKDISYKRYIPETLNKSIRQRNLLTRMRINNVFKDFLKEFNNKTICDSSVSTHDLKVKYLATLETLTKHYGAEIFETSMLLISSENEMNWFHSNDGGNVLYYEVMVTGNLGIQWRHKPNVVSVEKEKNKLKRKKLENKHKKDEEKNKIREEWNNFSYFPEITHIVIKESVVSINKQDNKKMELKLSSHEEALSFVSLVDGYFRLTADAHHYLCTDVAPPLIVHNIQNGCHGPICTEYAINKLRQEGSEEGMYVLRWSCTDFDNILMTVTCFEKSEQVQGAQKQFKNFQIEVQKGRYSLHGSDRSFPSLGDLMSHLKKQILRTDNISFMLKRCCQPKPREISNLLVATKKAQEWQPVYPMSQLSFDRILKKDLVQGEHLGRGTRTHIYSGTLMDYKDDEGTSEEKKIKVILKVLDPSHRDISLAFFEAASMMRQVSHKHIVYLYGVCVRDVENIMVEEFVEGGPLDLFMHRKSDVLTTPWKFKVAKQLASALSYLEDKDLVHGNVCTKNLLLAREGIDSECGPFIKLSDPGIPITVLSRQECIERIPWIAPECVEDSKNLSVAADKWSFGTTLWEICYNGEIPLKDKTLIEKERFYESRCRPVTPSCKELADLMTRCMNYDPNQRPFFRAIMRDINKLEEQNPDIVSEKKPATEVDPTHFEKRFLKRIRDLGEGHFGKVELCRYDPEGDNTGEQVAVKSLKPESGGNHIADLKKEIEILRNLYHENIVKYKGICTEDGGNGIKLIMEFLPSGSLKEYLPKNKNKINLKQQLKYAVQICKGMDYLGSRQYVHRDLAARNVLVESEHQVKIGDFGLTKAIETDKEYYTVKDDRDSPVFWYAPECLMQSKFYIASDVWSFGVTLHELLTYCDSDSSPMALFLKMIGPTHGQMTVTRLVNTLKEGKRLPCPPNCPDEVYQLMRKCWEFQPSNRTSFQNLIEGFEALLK
Chain of Tyrosine-protein kinase JAK2 (O60674 whole entry): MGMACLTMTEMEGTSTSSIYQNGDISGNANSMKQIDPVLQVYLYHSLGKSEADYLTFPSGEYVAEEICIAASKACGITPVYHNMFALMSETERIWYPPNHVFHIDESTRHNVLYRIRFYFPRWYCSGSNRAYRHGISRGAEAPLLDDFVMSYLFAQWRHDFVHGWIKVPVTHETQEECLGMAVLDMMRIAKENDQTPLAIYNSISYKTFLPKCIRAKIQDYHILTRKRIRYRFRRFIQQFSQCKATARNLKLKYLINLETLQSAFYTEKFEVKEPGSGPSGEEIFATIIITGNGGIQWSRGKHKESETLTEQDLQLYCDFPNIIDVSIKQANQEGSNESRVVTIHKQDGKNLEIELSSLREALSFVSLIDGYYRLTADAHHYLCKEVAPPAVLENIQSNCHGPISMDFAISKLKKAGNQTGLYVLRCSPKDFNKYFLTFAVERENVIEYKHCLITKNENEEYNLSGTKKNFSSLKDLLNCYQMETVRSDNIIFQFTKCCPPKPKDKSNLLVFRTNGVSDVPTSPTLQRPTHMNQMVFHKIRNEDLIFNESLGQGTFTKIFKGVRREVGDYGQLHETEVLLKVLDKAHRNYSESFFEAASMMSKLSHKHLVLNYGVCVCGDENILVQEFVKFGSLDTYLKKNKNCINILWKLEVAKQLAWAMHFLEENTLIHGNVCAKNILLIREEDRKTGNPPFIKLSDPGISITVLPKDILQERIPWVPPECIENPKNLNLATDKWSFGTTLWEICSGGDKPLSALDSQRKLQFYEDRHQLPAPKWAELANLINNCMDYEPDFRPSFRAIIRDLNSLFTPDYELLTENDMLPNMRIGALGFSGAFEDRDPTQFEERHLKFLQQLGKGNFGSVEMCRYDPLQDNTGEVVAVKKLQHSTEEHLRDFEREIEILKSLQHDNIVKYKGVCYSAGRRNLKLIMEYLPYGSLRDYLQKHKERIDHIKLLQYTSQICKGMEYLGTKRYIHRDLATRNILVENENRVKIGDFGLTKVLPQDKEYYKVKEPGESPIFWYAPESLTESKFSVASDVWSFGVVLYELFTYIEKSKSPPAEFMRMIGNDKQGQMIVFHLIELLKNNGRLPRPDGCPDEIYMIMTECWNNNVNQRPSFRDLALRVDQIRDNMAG

IC50 [1] [µM]	IC50 [2] [µM]	IC50 (T-cell) [µM]	IC50 (cells) [µM]	SMILES	IC50 (HFF) [µM]
> 10	> 10	5.09		COc1cc2ncnc(Nc3ccc(O)c(Br)c3)c2cc1OC	6.34
		3.69		c1ccc2c(c1)C1CCCCC1N2c1ncnc2[nH]ccc12 (stereo not given)	10
> 10	> 10	> 10	> 10	COc1cc2ncnc(Nc3ccc(O)cc3)c2cc1OC [WHI-P131]	
> 10	3.38	3.75	7.56	N#C/C(=C\c1ccc(O)c(O)c1)C(=O)NCc1ccccc1	5.58
